Data on four compounds can be found in PubChem BioAssay AID1259411 (Chemical Carcinogenesis Research Information System (CCRIS), 2018).

In the series the test system is rodent carcinogenicity bioassays, tumor incidence. In words: CCRIS carcinogenicity studies. Conditions: Dose: 0, Dose: 0. A digest of the protocol: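 NCI-built, expert-reviewed records of carcinogenicity and related test outcomes (mutagenicity, tumor promotion/inhibition) compiled from published and report sources, historical span 1985-2011, not updated.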

Active and inactive are the calls of the source. The rule behind the calls is not given here.

Regarding `CC(=O)CC(C)C`, the carcinogen call was “equivocal” (Species: Mouse, Strain/Sex: B6C3F1/N/Female, Route: Inhalation, 450, 900, 1800 ppm 6 hr and 12 min/day, 5 d/wk for 105 wks, 450, 900, 1800 ppm 6 hr and 12 min/day, 5 d/wk for 105 wks, Tumor Site: Type of Lesion: Liver: Hepatocellular adenoma (13/50, 15/50, 20/50, 23/50), Hepatocellular carcinoma (6/50, 5/50, 6/50, 11/50), Hepatoce, Tumor Site: Type of Lesion: Liver: Hepatocellular adenoma (13/50, 15/50, 20/50, 23/50), Hepatocellular carcinoma (6/50, 5/50, 6/50, 11/50), Hepatoce); “active; positive (ntp describes as some evidence)” (Species: Mouse, Strain/Sex: B6C3F1/N/Male, Route: Inhalation, 450, 900, 1800 ppm 6 hr and 12 min/day, 5 d/wk for 105 wks, 450, 900, 1800 ppm 6 hr and 12 min/day, 5 d/wk for 105 wks, Tumor Site: Type of Lesion: Liver: Hepatocellular adenoma (17/50, 25/50, 23/50, 34/50), Hepatocellular carcinoma (12/50, 12/50, 10/50, 9/50), Hepato, Tumor Site: Type of Lesion: Liver: Hepatocellular adenoma (17/50, 25/50, 23/50, 34/50), Hepatocellular carcinoma (12/50, 12/50, 10/50, 9/50), Hepato); “equivocal” (Species: Rat, Strain/Sex: F344/N/Female, Route: Inhalation, 450, 900, 1800 ppm 6 hr and 12 min/d, 5 d/wk for 104 wks, 450, 900, 1800 ppm 6 hr and 12 min/d, 5 d/wk for 104 wks, Tumor Site: Type of Lesion: Mesenchymal tumor malignant: (0/50, 0/50, 0/50, 2/50)); “active; positive (ntp describes as some evidence)” (Species: Rat, Strain/Sex: F344/N/Male, Route: Inhalation, 450, 900, 1800 ppm 6 hr and 12 min/d, 5 d/wk for 104 wks, 450, 900, 1800 ppm 6 hr and 12 min/d, 5 d/wk for 104 wks, Tumor Site: Type of Lesion: Kidney: Renal tubule adenoma (2/50, 3/50, 3/50, 10/50), Renal tubule carcinoma (0/50, 1/50, 0/50, 2/50), Renal tubule ad, Tumor Site: Type of Lesion: Kidney: Renal tubule adenoma (2/50, 3/50, 3/50, 10/50), Renal tubule carcinoma (0/50, 1/50, 0/50, 2/50), Renal tubule ad).
Take `CC(C)COC(=O)c1ccc(O)cc1`: the carcinogen call is “inactive; negative” (Species: MOUSE, Strain/Sex: ICR/FEMALE, Route: ORAL, 0.15, 0.3, 0.6% IN DIET FOR 102 WK (STUDY DURATION: 106 WK), 0.15, 0.3, 0.6% IN DIET FOR 102 WK (STUDY DURATION: 106 WK)) and “inactive; negative” (Species: MOUSE, Strain/Sex: ICR/MALE, Route: ORAL, 0.15, 0.3, 0.6% IN DIET FOR 102 WK (STUDY DURATION: 106 WK), 0.15, 0.3, 0.6% IN DIET FOR 102 WK (STUDY DURATION: 106 WK)).
On to `CN(C)c1ccc(C(=C2C=CC(=[N+](C)C)C=C2)c2c(O)c(S(=O)(=O)[O-])cc3cc(S(=O)(=O)O)ccc23)cc1`, for which the carcinogen call reads like this: (Species: MOUSE, Strain/Sex: CD-1/FEMALE, Route: ORAL, 0.033, 0.33, 0.66% IN DIET TO PUPS OF PARENTS GIVEN THE SAME DIETARY DOSES FOR 9 WK PRIOR TO MATING. FROM 2 TO 5 WK O, 0.033, 0.33, 0.66% IN DIET TO PUPS OF PARENTS GIVEN THE SAME DIETARY DOSES FOR 9 WK PRIOR TO MATING. FROM 2 TO 5 WK O) “inactive; negative”; (Species: MOUSE, Strain/Sex: CD-1/MALE, Route: ORAL, 0.033, 0.33, 0.66% IN DIET TO PUPS OF PARENTS GIVEN THE SAME DIETARY DOSES FOR 9 WK PRIOR TO MATING. FROM 2 TO 5 WK O, 0.033, 0.33, 0.66% IN DIET TO PUPS OF PARENTS GIVEN THE SAME DIETARY DOSES FOR 9 WK PRIOR TO MATING. FROM 2 TO 5 WK O) “inactive; negative”.
Regarding `Cc1cccc(C)c1NC1=NCCCS1`, the carcinogen call (Species: RAT, Strain/Sex: F344/MALE, Route: ORAL, 1,000 PPM IN FEED FOR 52 WK (STUDY DURATION: 52 WK), Tumor Site: Type of Lesion: THYROID: ADENOMA) was “active; positive”.
